ChEMBL document CHEMBL1938285, “Novel inhibitors of Mycobacterium tuberculosis dTDP-6-deoxy-L-lyxo-4-hexulose reductase (RmlD) identified by virtual screening” (Bioorg Med Chem Lett, 2011)
Values after ≈ are worked out from the molar mass of the structure shown. Active and inactive are the calls of the source. The rule behind the calls is not given here.

Each compound was assayed against T1, dTDP-4-dehydrorhamnose reductase (Mycobacterium tuberculosis, UniProt P9WH09) (assay: Inhibition of Mycobacterium tuberculosis RmlD assessed as inhibition of dTDP-beta-6-deoxy-L-lyxo-4-hexulose to dTDP-beta-L-rhamnose conversion). Settings: not given.
T1 sequence (P9WH09 whole entry): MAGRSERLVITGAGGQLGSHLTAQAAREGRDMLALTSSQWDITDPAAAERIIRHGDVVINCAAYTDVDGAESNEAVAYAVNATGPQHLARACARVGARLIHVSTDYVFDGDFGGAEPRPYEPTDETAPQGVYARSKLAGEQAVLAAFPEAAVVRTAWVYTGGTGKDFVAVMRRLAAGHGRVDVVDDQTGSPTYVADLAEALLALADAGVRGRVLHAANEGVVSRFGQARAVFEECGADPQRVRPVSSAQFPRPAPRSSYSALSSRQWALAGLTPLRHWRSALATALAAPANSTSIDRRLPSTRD
`O=c1cc2oc3cc(O)c(O)cc3c(-c3ccccc3)c-2cc1O` showed an IC50 of 900 nM. `Cc1c2cc(O)c(=O)cc-2oc2cc(O)c(O)cc12` was tested, and the IC50 was 15000 nM. `O=C1C=CC=CC1=C1c2cc(O)c(O)cc2Oc2cc(O)c(O)cc21` showed an IC50 of 2100 nM.

The compounds below were run on Mycobacterium tuberculosis (assay: Antimycobacterial activity against Mycobacterium tuberculosis H37Rv after 7 days by microbroth dilution-resazurin assay). Settings: 168 h.
Type: functional
`O=c1cc2oc3cc(O)c(O)cc3c(-c3ccccc3)c-2cc1O` was tested, and the MIC was 200 µg/mL (≈ 624 µM). `C=Cc1cc(O)cc2c1-c1ccc(O)c(C)c1CC2` [EFFUSOL] was tested, and the MIC was 20 µg/mL (≈ 79.3 µM). Compound `Cc1c2cc(O)c(=O)cc-2oc2cc(O)c(O)cc12` has an MIC of 62 µg/mL (≈ 240 µM). For `O=C1C=CC=CC1=C1c2cc(O)c(O)cc2Oc2cc(O)c(O)cc21`, the MIC was 133 µg/mL (≈ 395 µM).

Each compound was assayed against T2, dTDP-4-dehydrorhamnose reductase (Mycobacterium tuberculosis) (UniProt P9WH09) (assay: Inhibition of Mycobacterium tuberculosis RmlD assessed as inhibition of dTDP-beta-6-deoxy-L-lyxo-4-hexulose to dTDP-beta-L-rhamnose conversion at 10 ug/ml). Settings: not given.
T2 sequence (whole entry): T1 sequence (P9WH09 whole entry)
In the case of `CCC(c1ccc(O)cc1)C(CC)c1ccc(O)c(O)c1` (configuration not stated), the inhibition is reported as “inactive”. `CC(=O)OCc1cc(-c2nc3ccccc3nc2O)nn1-c1ccc(Cl)cc1` was tested, and the inhibition was “inactive”. For `CCC(c1ccccc1)C(CC)c1cc(O)c(O)c(O)c1` (configuration not stated), the inhibition was “inactive”. With `O=c1ccc2c(-c3ccccc3O)c3ccc(O)cc3oc-2c1` the inhibition was “inactive”. With `Cc1ccc(NC(=O)Nc2cccnc2)cc1NC(=O)Nc1cccnc1` the inhibition was “inactive”. For `NC(=O)CC[C@@H](C(=O)O)N1C(=O)c2ccc(O)cc2C1=O`, the inhibition was “inactive”. For `Cc1cc(=O)oc2cc(O)c(O)cc12`, the inhibition was “inactive”. For `CC(=O)Oc1c(C)c(OC(C)=O)c2c(c1C(C)=O)OC1CC(=O)C(C(C)=O)=C(O)C21C` (configuration not stated), the inhibition was “inactive”. `Cc1cc(O)c2cc3c(O)c(O)ccc3cc2c1` was tested, and the inhibition was “inactive”. In the case of `O=C(c1ccc(O)cc1)c1ccc(C(=O)c2ccc(O)cc2)cc1`, the inhibition is reported as “inactive”. With `O=C1CC(c2ccccc2)c2ccc(O)cc2O1` (configuration not stated) the inhibition was “inactive”. For `CCC(CC)C(c1ccc(O)cc1)c1ccc(O)cc1`, the inhibition was “inactive”. For `Oc1ccc(C(O)(c2ccccc2)c2ccc(O)c3ccccc23)c2ccccc12`, the inhibition was “inactive”. With `Cc1cc2c(cc1C)NC1=C(N2)OC(c2cccc(O)c2)C1=O` (configuration not stated) the inhibition was “inactive”. With `C=Cc1c(C)c(O)cc2c1-c1ccc(O)c(C)c1CC2` the inhibition was “inactive”. `COc1cc(/N=N/c2c(O)nc3ccccc3c2O)c(OC)cc1/N=N/c1ccccc1` was tested, and the inhibition was “inactive”. `COc1ccc(OC)c(NC(=O)c2cc3oc4ccccc4c3cc2O)c1` was tested, and the inhibition was “inactive”. For `COc1cc(C(=O)C(=O)c2cc(OC)c(O)c(OC)c2)cc(OC)c1O`, the inhibition was “inactive”. `Oc1ccc2c(O)c3ccccc3cc2c1O` was tested, and the inhibition was “inactive”. `Oc1ccc(C(c2ccc(O)cc2)c2ccc(O)cc2)cc1` was tested, and the inhibition was “inactive”. For `CCC(c1ccccc1)C(CC)c1ccc(O)c(O)c1` (configuration not stated), the inhibition was “inactive”. With `O=C(/C=C/c1ccc2ccccc2n1)c1cc(Cl)ccc1O` the inhibition was “inactive”. For `Oc1cc(C(c2ccccc2)c2ccccc2)c2ccccc2c1O`, the inhibition was “inactive”. With `Cn1c(=O)c2nc(CNc3ccc(C(=O)O)cc3)[nH]c2n(C)c1=O` the inhibition was “inactive”. In the case of `COc1ccccc1/C=C/C(=O)/C=C/c1ccccc1O`, the inhibition is reported as “inactive”. For `COc1cc(NC(=O)c2cc3ccccc3cc2O)c(OC)cc1Cl`, the inhibition was “inactive”. `C[C@@H]1O[C@@H](Oc2c(-c3cc(O)c(O)c(O)c3)oc3cc(O)cc(O)c3c2=O)[C@H](O)[C@H](O)[C@H]1O` was tested, and the inhibition was “inactive”. `O=c1oc2c(cc1O)oc(=O)c1cc(O)c(O)c(O)c12` was tested, and the inhibition was “inactive”. For `N=C(N)c1ccc(/C=C/c2ccc(C(=N)N)cc2O)cc1`, the inhibition was “inactive”. With `NC(=S)c1cn([C@@H]2O[C@H](CO)[C@@H](O)[C@H]2O)c2ncnc(N)c12` the inhibition was “inactive”. With `O=C1C(Cl)=C(Nc2ccc3c[nH]nc3c2)C(=O)c2ccccc21` the inhibition was “inactive”. In the case of `O=C1C=C(c2ccccc2)OC(=O)C1C(=O)c1ccccc1` (configuration not stated), the inhibition is reported as “inactive”. For `N#Cc1cnn2ccn([C@@H]3O[C@H](CO)[C@@H](O)[C@H]3O)c12`, the inhibition was “inactive”. For `O=C(O)/C=C/c1c2ccc(=O)c(O)c-2oc2c(O)c(O)ccc12`, the inhibition was “inactive”. `O=C(/C=C/c1ccc(O)c(O)c1)O[C@@H]1C[C@@](OC(=O)/C=C/c2ccc(O)c(O)c2)(C(=O)O)C[C@@H](O)[C@@H]1O` was tested, and the inhibition was “inactive”. For `CC(c1cccc(O)c1)C(C)c1cccc(O)c1` (configuration not stated), the inhibition was “inactive”. For `Cc1c(Cl)cccc1Nc1ncccc1C(=O)OCC(O)CO` (configuration not stated), the inhibition was “inactive”. For `COc1cccc2c1[C@H](CO)N1[C@H](C#N)[C@@H]3C[C@H](C(=O)O)[C@@H]([C@@H]1C2)N3C`, the inhibition was “inactive”. With `COc1ccccc1NC(=O)c1cc2cc(Br)ccc2cc1O` the inhibition was “inactive”. `O[C@@H]1[C@@H](OCc2ccccc2)OC[C@H](O)[C@@H]1O` was tested, and the inhibition was “inactive”. With `CSc1ncc2ncn([C@@H]3O[C@H](CO)[C@@H](O)[C@H]3O)c2n1` the inhibition was “inactive”. In the case of `Oc1ccc(-c2ccc3ccccc3c2)cc1`, the inhibition is reported as “inactive”. In the case of `O=C(OCC(O)COC(=O)c1cccnc1)c1cccnc1`, the inhibition is reported as “inactive”. For `COc1ccc(NC(=O)c2cc3ccc4c5ccccc5[nH]c4c3cc2O)cc1`, the inhibition was “inactive”. For `CC(Cc1ccc(O)c(O)c1)C(C)Cc1ccc(O)c(O)c1` (configuration not stated), the inhibition was “inactive”.
